EP4692090A1 (Shanghai Fosun Pharmaceutical (Group) Co., Ltd., priority 2023, dated 2024)
pIC50: −log10 of the molar value. Where two headings read alike, the source gives them in different places.

Experiments:
ATR kinase = molecular target: T1, ATR kinase (Homo sapiens, UniProt Q13535); test: Inhibitory effect on ATR kinase activity (Caliper mobility shift, FAM-labeled RAD17 peptide substrate); assay type: biochemical
T1 construct: purchased Eurofins 14-953
Method in brief: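 Caliper mobility-shift assay with 1 nM ATR, FAM-labeled RAD17 peptide […] and 5 mM ATP in HEPES pH 7.5 with 10 mM MnCl2, run 3 h at 28 °C and stopped with EDTA. Compounds were tested in 10-point 3-fold dilutions from 1 µM. IC50 was fitted from % inhibition of substrate conversion versus blank control.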

LoVo cells = test: LoVo cell proliferation assay (CellTiter-Glo); assay type: cell-based; settings: maximum concentration 10 µM, 9 concentrations; for pIC50: LoVo cells, 2,000 cells per well, 5 days incubation, CellTiter-Glo, read-out: LoVo IC50; for IC50: read-out: LoVo IC50 (nM), LoVo cells, 2,000 cells per well, 5 days incubation, CellTiter-Glo
Method in brief: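 LoVo cells, 2,000 per well, were treated after overnight attachment with 9-point 3-fold dilutions from 10 µM for 5 days at 37 °C. Viability was read by CellTiter-Glo luminescence. Inhibition % was taken relative to DMSO control, and IC50 came from the concentration–inhibition curve.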

[1] = 1 nM ATR kinase (Eurofins), 28°C for 3 hours, maximum concentration 1 µM, 10 concentrations, read-out: ATR kinase IC50
[2] = read-out: ATR kinase IC50, 1 nM ATR kinase (Eurofins), 28°C for 3 hours, maximum concentration 1 µM, 10 concentrations

T1 sequence (Q13535 whole entry): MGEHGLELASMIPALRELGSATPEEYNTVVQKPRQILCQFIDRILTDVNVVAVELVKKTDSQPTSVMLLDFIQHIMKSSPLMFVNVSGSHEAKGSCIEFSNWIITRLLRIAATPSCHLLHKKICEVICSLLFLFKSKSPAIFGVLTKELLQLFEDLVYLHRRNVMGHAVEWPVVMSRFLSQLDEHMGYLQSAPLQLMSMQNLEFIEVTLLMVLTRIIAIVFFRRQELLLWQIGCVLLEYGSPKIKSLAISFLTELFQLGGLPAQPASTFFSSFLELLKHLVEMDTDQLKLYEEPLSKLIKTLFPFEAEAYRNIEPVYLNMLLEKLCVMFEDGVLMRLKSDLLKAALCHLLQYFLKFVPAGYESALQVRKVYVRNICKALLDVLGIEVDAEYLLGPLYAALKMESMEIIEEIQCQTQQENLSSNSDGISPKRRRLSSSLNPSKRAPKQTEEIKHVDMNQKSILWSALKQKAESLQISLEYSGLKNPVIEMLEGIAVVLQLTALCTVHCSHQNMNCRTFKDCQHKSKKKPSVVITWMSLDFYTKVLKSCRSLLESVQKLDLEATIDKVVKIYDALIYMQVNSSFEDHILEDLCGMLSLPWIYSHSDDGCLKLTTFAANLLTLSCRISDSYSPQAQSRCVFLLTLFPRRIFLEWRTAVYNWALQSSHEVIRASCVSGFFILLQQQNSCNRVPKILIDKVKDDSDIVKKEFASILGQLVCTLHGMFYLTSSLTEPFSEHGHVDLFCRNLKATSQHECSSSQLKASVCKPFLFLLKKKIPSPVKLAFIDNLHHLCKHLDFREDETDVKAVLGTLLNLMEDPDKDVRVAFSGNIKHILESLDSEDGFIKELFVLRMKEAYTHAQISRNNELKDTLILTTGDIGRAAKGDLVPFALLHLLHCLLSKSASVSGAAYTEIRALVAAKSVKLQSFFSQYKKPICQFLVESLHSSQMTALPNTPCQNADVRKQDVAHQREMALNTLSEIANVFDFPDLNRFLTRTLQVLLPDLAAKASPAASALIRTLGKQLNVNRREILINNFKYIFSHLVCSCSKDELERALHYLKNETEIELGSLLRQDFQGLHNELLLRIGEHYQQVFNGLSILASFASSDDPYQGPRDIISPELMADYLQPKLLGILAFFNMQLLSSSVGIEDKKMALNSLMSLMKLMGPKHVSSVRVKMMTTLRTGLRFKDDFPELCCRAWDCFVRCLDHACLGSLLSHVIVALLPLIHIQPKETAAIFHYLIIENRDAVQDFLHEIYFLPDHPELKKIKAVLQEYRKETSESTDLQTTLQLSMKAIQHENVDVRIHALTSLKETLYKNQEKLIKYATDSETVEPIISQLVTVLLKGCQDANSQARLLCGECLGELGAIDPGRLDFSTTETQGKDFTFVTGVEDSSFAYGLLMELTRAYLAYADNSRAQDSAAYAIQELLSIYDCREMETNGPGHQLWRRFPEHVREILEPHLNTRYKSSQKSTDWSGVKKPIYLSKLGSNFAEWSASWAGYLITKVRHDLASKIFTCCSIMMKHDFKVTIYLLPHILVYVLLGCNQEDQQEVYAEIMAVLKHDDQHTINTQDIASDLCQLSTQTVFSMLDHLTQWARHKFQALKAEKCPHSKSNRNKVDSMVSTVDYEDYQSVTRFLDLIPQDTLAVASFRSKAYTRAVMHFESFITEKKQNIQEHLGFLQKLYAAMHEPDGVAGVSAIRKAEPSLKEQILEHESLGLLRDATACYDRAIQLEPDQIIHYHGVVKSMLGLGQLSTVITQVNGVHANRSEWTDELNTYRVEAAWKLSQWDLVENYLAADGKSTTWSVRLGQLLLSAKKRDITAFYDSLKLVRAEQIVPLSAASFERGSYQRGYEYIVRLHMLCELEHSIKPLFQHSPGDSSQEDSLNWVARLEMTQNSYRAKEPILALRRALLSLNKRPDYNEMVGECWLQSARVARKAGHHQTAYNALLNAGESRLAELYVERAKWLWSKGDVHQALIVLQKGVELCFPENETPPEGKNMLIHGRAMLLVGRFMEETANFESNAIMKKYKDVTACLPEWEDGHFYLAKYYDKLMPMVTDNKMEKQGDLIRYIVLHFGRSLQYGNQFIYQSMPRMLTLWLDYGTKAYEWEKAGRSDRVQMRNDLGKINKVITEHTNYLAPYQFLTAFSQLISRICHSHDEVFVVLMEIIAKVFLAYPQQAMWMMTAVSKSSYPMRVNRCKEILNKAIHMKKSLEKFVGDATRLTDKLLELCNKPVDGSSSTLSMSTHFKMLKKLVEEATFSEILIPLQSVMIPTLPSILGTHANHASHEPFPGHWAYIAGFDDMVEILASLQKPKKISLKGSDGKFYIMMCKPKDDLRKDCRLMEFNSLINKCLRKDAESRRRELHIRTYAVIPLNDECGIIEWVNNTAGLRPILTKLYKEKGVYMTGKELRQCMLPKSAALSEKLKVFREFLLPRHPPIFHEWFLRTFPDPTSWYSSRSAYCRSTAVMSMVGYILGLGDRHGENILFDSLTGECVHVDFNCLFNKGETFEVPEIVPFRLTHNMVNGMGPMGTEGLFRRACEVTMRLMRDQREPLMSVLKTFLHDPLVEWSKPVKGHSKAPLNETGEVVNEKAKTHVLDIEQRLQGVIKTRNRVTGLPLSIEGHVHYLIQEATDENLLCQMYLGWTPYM
T1 sequence (Q8WXE1 whole entry partner): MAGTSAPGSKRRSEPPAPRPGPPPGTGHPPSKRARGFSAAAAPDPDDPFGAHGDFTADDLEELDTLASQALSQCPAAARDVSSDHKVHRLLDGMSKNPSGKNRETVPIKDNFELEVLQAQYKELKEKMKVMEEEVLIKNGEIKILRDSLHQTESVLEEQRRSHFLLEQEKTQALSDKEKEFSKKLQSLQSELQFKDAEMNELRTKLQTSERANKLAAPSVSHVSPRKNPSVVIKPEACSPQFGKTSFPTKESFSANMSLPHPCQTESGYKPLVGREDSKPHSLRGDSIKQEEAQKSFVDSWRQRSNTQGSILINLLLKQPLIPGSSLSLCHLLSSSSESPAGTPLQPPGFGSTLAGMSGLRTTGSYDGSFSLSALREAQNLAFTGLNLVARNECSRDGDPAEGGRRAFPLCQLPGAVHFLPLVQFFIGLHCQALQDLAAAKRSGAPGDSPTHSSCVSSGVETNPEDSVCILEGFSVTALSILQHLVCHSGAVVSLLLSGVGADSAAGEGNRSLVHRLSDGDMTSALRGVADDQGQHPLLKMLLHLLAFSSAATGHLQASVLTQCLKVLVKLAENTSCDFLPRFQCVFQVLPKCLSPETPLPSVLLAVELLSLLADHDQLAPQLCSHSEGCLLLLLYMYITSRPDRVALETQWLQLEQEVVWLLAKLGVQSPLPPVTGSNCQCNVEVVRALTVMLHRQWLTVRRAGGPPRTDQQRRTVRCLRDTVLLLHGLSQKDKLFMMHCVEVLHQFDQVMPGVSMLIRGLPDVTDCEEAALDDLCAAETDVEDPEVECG

SMILES | pIC50 (ATR kinase; [1]) | pIC50 (LoVo cells) | pIC50 (LoVo cells; Homo sapiens, LoVo, 120 h) | pIC50 (ATR kinase; [2]) | IC50 (LoVo cells; Homo sapiens, LoVo, 120 h) [nM]
[2H]C([2H])([2H])N1CCc2nn(-c3cc[nH]n3)c3nc(N4CCOC[C@H]4C)cc(c23)C1C (single isomer, unassigned) [Compound 47B] | > 8.00 | > 7.00 | – | – | –
C[C@@H]1COCCN1c1cc2c3c(n1)c(-c1cc[nH]n1)nn3CCC(=O)N2C1CCOCC1 [Compound 91, (R)-4-(3-methylmorpholino)-2-(1H-pyrazol-3-yl)-6-(tetrahydro-2H-pyran-4-yl)-8,9-dihydro-1,3,6,9a-tetraazabenzo[cd]azulene-7(6H)-one] | 7.00 to 8.00 | – | 6.00 to 7.00 | – | –
C[C@@H]1COCCN1c1cc2c3c(nn(-c4cc[nH]n4)c3n1)CCN(C1CC(C(F)(F)F)C1)C2 (single isomer, unassigned) [Compound 13B] | 6.00 to 7.00 | < 6.00 | – | – | –
CCC1c2cc(N3CCOC[C@H]3C)nc3c2c(nn3-c2cc[nH]n2)CCN1S(C)(=O)=O (single isomer, unassigned) [Compound 144B] | > 8.00 | > 7.00 | – | – | –
C[C@@H]1COCCN1c1cc2c3c(n1)c(-c1cc[nH]n1)nn3CCC(=O)N2C12CC(C1)C2 [Compound 110, (R)-6-(bicyclo[1.1.1]pentan-1-yl)-4-(3-methylmorpholinyl)-2-(1H-pyrazol-3-yl)-8,9-dihydro-1,3,6,9a-tetraazabenzo[cd]azulene-7(6H)-one] | – | – | – | > 8.00 | < 100
C[C@@H]1COCCN1c1cc2c3c(nn(-c4cc[nH]n4)c3n1)CCN(C13CC(C1)C3)C2=O [Compound 139, (R)-7-(bicyclo[1.1.1]pentan-1-yl)-4-(3-methylmorpholinyl)-2-(1H-pyrazol-3-yl)-2,7,8,9-tetrahydro-6H-1,2,3,7-tetraazabenzo[cd]azulene-6-one] | – | – | – | > 8.00 | 100 to 1000
CC(=O)N1CCc2nn(-c3cc[nH]n3)c3nc(N4CCOC[C@H]4C)cc(c23)C1 [Compound 5] | 7.00 to 8.00 | – | 6.00 to 7.00 | – | –
C[C@@H]1COCCN1c1cc2c3c(n1)c(-c1cc[nH]n1)nn3CCC(=O)N2 [Compound 93, (R)-4-(3-methylmorpholino)-2-(1H-pyrazol-3-yl)-8,9-dihydro-1,3,6,9a-tetraazabenzo[cd]azulene-7(6H)-one] | 7.00 to 8.00 | – | 6.00 to 7.00 | – | –
C[C@@H]1COCCN1c1cc2c3c(n1)c(-c1cc[nH]n1)nn3CCC(=O)N2CC1(C)CC1 [Compound 87, (R)-6-((1-methylcyclopropyl)methyl)-4-(3-methylmorpholinyl)-2-(1H-pyrazol-3-yl)-8,9-dihydro-1,3,6,9a-tetraazabenzo[cd]azulene-7(6H)-one] | – | – | – | 7.00 to 8.00 | < 100
COCC12CC(N3C(=O)CCn4nc(-c5cc[nH]n5)c5nc(N6CCOC[C@H]6C)cc3c54)(C1)C2 [Compound 107, (R)-6-(3-(methoxymethyl)bicyclo[1.1.1]pentan-1-yl)-4-(3-methylmorpholinyl)-2-(1H-pyrazol-3-yl)-8,9-dihydro-1,3,6,9a-tetraazabenzo[cd]azulene-7(6H)-one] | – | – | – | > 8.00 | 100 to 1000
C[C@@H]1COCCN1c1cc2c3c(nn(-c4cc[nH]n4)c3n1)CCN(S(=O)(=O)C(F)F)C2 [Compound 27, (R)-4-(7-((difluoromethyl)sulfonyl)-2-(1H-pyrazol-3-yl)-6,7,8,9-tetrahydro-2H-1,2,3,7-tetraazabenzo[cd]azulen-4-yl)-3-methylmorpholine] | > 8.00 | – | 6.00 to 7.00 | – | –
CC1c2cc(N3CCOC[C@H]3C)nc3c2c(nn3-c2cc[nH]n2)CCN1S(=O)(=O)C1(C)CC1 (single isomer, unassigned) [Compound 49B] | 7.00 to 8.00 | 6.00 to 7.00 | – | – | –
C[C@@H]1COCCN1c1cc2c3c(n1)c(-c1cc[nH]n1)nn3CCC(=O)N2CC12CC(F)(C1)C2 [Compound 115, (R)-6-((3-fluorobicyclo[1.1.1]pentan-1-yl)methyl)-4-(3-methylmorpholinyl)-2-(1H-pyrazol-3-yl)-8,9-dihydro-1,3,6,9a-tetraazabenzo[cd]azulene-7(6H)-one] | – | – | – | > 8.00 | < 100
C[C@@H]1COCCN1c1cc2c3c(nn(-c4cc[nH]n4)c3n1)CCN(C(=O)C1CC1(F)F)C2 (stereo partly drawn) [Compound 19, (2,2-difluorocyclopropyl)(4-((R)-3-methylmorpholino)-2-(1H-pyrazol-3-yl)-2,6,8,9-tetrahydro-7H-1,2,3,7-tetraazabenzo[cd]azulene-7-yl)methanone] | > 8.00 | – | 6.00 to 7.00 | – | –
C[C@@H]1COCCN1c1cc2c3c(nn(-c4cc[nH]n4)c3n1)CCN(C1COC1)C2 [Compound 8, (R)-3-Methyl-4-(7-(oxetan-3-yl)-2-(1H-pyrazol-3-yl)-6,7,8,9-tetrahydro-2H-1,2,3,7-tetraazabenzo[cd]azulen-4-yl)morpholine] | 7.00 to 8.00 | – | 6.00 to 7.00 | – | –
CC(C)C1c2cc(N3CCOC[C@H]3C)nc3c2c(nn3-c2cc[nH]n2)CCN1C (single isomer, unassigned) [Compound 141A] | > 8.00 | – | > 7.00 | – | –

SMILES | pIC50 (ATR kinase; [1]) | pIC50 (LoVo cells) | pIC50 (LoVo cells; Homo sapiens, LoVo, 120 h) | pIC50 (ATR kinase; [2]) | IC50 (LoVo cells; Homo sapiens, LoVo, 120 h) [nM]
CC1c2cc(N3CCOC[C@H]3C)nc3c2c(nn3-c2cc[nH]n2)CCN1S(=O)(=O)C1CC1 (single isomer, unassigned) [Compound 37A] | 7.00 to 8.00 | – | > 7.00 | – | –
CC1c2cc(N3CCOC[C@H]3C)nc3c2c(nn3-c2cc[nH]n2)CCN1C1(C#N)CC1 (single isomer, unassigned) [Compound 42B] | 7.00 to 8.00 | > 7.00 | – | – | –
CC1=NCCn2nc(-c3cc[nH]n3)c3nc(N4CCOC[C@H]4C)cc1c32 [Compound 58, (R)-3-methyl-4-(6-methyl-2-(1H-pyrazol-3-yl)-8,9-dihydro-1,3,7,9a-tetraazabenzo[cd]azulen-4-yl)morpholine] | 7.00 to 8.00 | – | 6.00 to 7.00 | – | –
C[C@@H]1COCCN1c1cc2c3c(n1)c(-c1cc[nH]n1)nn3CCC(=O)N2CCC(F)(F)F [Compound 85, (R)-4-(3-methylmorpholino)-2-(1H-pyrazol-3-yl)-6-(3,3,3-trifluoropropyl)-8,9-dihydro-1,3,6,9a-tetraazabenzo[cd]azulene-7(6H)-one] | 7.00 to 8.00 | – | > 7.00 | – | –
CC1c2cc(N3CCOC[C@H]3C)nc3c2c(nn3-c2cc[nH]n2)CCN1S(=O)(=O)C1CC1 (single isomer, unassigned) [Compound 37B] | > 8.00 | > 7.00 | – | – | –
CC(C)N1CCc2nn(-c3cc[nH]n3)c3nc(N4CCOC[C@H]4C)cc(c23)C1C (single isomer, unassigned) [Compound 36B] | > 8.00 | > 7.00 | – | – | –
CC1c2cc(N3CCOC[C@H]3C)nc3c2c(nn3-c2cc[nH]n2)CCN1C1(C#N)CC1 (single isomer, unassigned) [Compound 42A] | > 8.00 | – | > 7.00 | – | –
C[C@@H]1COCCN1c1cc2c3c(n1)c(-c1cc[nH]n1)nn3CCC(=O)N2C1CC2(CC(O)C2)C1 (stereo partly drawn) [Compound 97, (R)-6-(6-hydroxyspiro[3.3]hept-2-yl)-4-(3-methylmorpholinyl)-2-(1H-pyrazol-3-yl)-8,9-dihydro-1,3,6,9a-tetraazabenzo[cd]azulene-7(6H)-one] | – | – | – | > 8.00 | 100 to 1000
C[C@@H]1COCCN1c1cc2c3c(n1)c(-c1cc[nH]n1)nn3CCC(=O)N2CC1CC1 [Compound 83, (R)-6-(cyclopropylmethyl)-4-(3-methylmorpholino)-2-(1H-pyrazol-3-yl)-8,9-dihydro-1,3,6,9a-tetraazabenzo[cd]azulene-7(6H)-one] | 7.00 to 8.00 | – | > 7.00 | – | –
C[C@@H]1COCCN1c1cc2c3c(nn(-c4cc[nH]n4)c3n1)CCN(C)C2C1CC1 (single isomer, unassigned) [Compound 142A] | > 8.00 | – | > 7.00 | – | –
CN=S(C)(=O)N1CCc2nn(-c3cc[nH]n3)c3nc(N4CCOC[C@H]4C)cc(c23)C1C (single isomer, unassigned) [Compound 152B] | 7.00 to 8.00 | 6.00 to 7.00 | – | – | –
CC(C)N1CCc2nn(-c3cc[nH]n3)c3nc(N4CCOC[C@H]4C)cc(c23)C1C (single isomer, unassigned) [Compound 36A] | > 8.00 | – | 6.00 to 7.00 | – | –
C[C@@H]1COCCN1c1cc2c3c(nn(-c4cc[nH]n4)c3n1)CCN(C(=O)C1CC(F)(F)C1)C2 [Compound 9, (R)-(3,3-difluorocyclobutyl)(4-(3-methylmorpholino)-2-(1H-pyrazol-3-yl)-2,6,8,9-tetrahydro-7H-1,2,3,7-tetraazabenzo[cd]azulene-7-yl)methanone] | 7.00 to 8.00 | – | < 6.00 | – | –
C[C@@H]1COCCN1c1cc2c3c(n1)c(-c1cc[nH]n1)nn3CCC(=O)N2CC1(C#N)CC1 [Compound 116, (R)-1-((4-(3-methylmorpholinyl)-7-oxo-2-(1H-pyrazol-3-yl)-8,9-dihydro-1,3,6,9a-tetraazabenzo[cd]azulene-6(7H)-yl)methyl)cyclopropane-1-carbonitrile] | – | – | – | 7.00 to 8.00 | 100 to 1000
CC1c2cc(N3CCOC[C@H]3C)nc3c2c(nn3-c2cc[nH]n2)CCN1CC1COC1 (single isomer, unassigned) [Compound 44A] | 7.00 to 8.00 | – | 6.00 to 7.00 | – | –
CC1c2cc(N3CCOC[C@H]3C)nc3c2c(nn3-c2cc[nH]n2)CCN1S(C)(=O)=NC1CC1 (stereo partly drawn) [Compound 153, (3R)-4-(7-(N-cyclopropyl-S-methylsulfonylimino)-6-methyl-2-(1H-pyrazol-3-yl)-6,7,8,9-tetrahydro-2H-1,2,3,7-tetraazabenzo[cd]azulen-4-yl)-3-methylmorpholine] | – | – | – | 7.00 to 8.00 | 100 to 1000
